Measurements as given in EP4752137A1, “NEW COMPOUNDS DERIVED FROM MORIN, METHOD FOR OBTAINING THEM AND THEIR USES” (Universidad de Sevilla, priority 2023, dated 2025).

Experiments:
[1] = ABTS antioxidant capacity, Trolox curve as reference control; format: biochemical; conditions: ABTS technique
Procedure: First, the antioxidant capacity of the compounds was determined directly using the ABTS technique (2,2-azino-bis-3-benzo-thiazoline-6-sulfonic acid) at different concentrations of the compounds (morin and the compounds of Example 1), using as a reference control a curve of increasing concentrations of Trolox. […] Table 1. Antioxidant capacity of compounds

[2] = system: IL-6 (Interleukin-6); test: IL-6 production by ELISA in UVB-irradiated HaCaT keratinocytes; format: cell-based; conditions: for reduced IL-6 levels: 10 µM (highest concentration tested), 4 h pretreatment, UVB 50 mJ/cm^2, 24 h incubation
Procedure: For the evaluation of anti-inflammatory activity (Figure 2), HaCaT keratinocytes were pretreated for 4 h with the compounds morin (A), morin oxime obtained in Example 1 (B) and morin semicarbazone obtained in Example 1 (C) (2.5, 5 and 10 µM). They were then irradiated with UVB radiation at 50 mJ/cm^2, incubated for 24 h and IL-6 (Interleukin-6) production was assessed by ELISA. Results were expressed as pg/mL and bars represent ± SEM (n=5). […] Thus, it is worth noting that at the highest concentration tested (10 µM), morin oxime reduced IL-6 levels by 45% (Figure 2B) and morin semicarbazone by 28% (Figure 2C), compared to morin, with which a decrease of only 16% was observed (Figure 2A).
Finally, the combination of morin or the morin semicarbazone derivative from Example 1 with fucoxanthin induced a decrease in IL-6 production at all concentrations tested in a 1:1 proportion. It is worth mentioning that this reduction was more notable with the fucoxanthin+morin semicarbazone mixture at the 5-5 µM and 10-10 µM combinations (42% reduction) (Figure 6C) than with fucoxanthin+morin (38% reduction) (Figure 6B). […] The results were expressed as a percentage with respect to the irradiated control cells and the bars represented mean ± SEM (n = 4).

[3] = system: ROS; test: Intracellular ROS (dichlorodihydrofluorescein-diacetate technique) in UVB-irradiated HaCaT cells; format: cell-based
Procedure: For the evaluation of the antioxidant activity of morin semicarbazone obtained in Example 1, HaCaT cells were pre-treated with morin and semicarbazone at the selected concentrations for 4 h and then irradiated with UVB radiation at 50 mJ/cm^2. After 45 min, ROS levels were measured using the dichlorodihydrofluorescein-diacetate technique. […] The results were expressed as a percentage with respect to the irradiated cell control and the bars represented mean ± SEM (n=4).
This decrease was slightly greater with the fucoxanthin+morin semicarbazone mixture at the 1.25-1.25 µM and 2.5-2.5 µM combinations (41% reduction) (Figure 5C) than with fucoxanthin+morin (33% and 37% reduction, respectively) (Figure 5B). […] The results were expressed as a percentage with respect to the irradiated control cells and the bars represented mean ± SEM (n = 4).

[4] = UV-vis absorption spectra (molar extinction coefficient); format: physicochemical; conditions: UV-vis 200-500 nm; improvement relative to morin
Description: As experimental evidence of the improvement in the photoprotective capacity of compounds synthesized in Example 1, a comparison was made of the absorption capacity in the UV-vis range between morin and nitrogen derivatives (Schiff bases).
The tangible improvement with chemical modification for the compounds synthesized in Example 1 is evident by comparing the molar extinction coefficient (ε) values. […] In a further analysis, it can be seen that the εmax of morin oxime is 60% better than that of morin, and εmax of morin semicarbazone is 40% better than that of morin. […] Therefore, an improvement can be achieved in the optimization of active ingredients used in the preparation of compositions, the purpose of which is directed towards photoprotection and a photoabsorbent flavonoid is contemplated in said formulation.

[5] = Solubility of the isolated crystals; format: physicochemical; conditions: solvents in words
Procedure: For the preparation of morin oxime, 0.03 g of morin dissolved in 5 mL of MeOH were used, 0.0206 g of hydroxylamine hydrochloride and 0.0206 g of sodium acetate were added. The mixture was left under constant stirring and reflux for 2.5 hours. After this time, the crude product of the reaction was tempered and poured onto wet ice generating a precipitate, which was washed with dichloromethane and methanol obtaining a yellow solid in 60% yield. […] 6.45 dd (J = 8.5; 2.1 Hz). 6.39 d (J = 2.1 Hz). 6.34 d (J = 1.9 Hz). 6.16 d (J = 1.9 Hz). NMR of ^13C δ 102.9. 122.0. 122.0. 144.3. 149.1. 149.4. 152.8. 153.1. 154.7. 155.9. 84.5. 89.5. 95.5. 95.5. 99.5. UV (EtOH) λmax (log ε) 210 (4.6). 265 (4.2). 390 (4.4). The preparation of the compound can be carried out using the above-mentioned method with 0.1 g of morin, 0.07 g of hydroxylamine hydrochloride and 0.07 g of sodium acetate.
For the preparation of morin semicarbazone, 0.03 g of morin dissolved in 5 mL of MeOH was used, 0.0332 g of semicarbazide hydrochloride and 0.0332 g of sodium acetate were added. The mixture was left under constant stirring and reflux for 3 hours. After this time, the crude product of the reaction was tempered and poured onto wet ice generating a precipitate, which was recovered by filtration obtaining a coffee solid in 76% yield. […] 10.71 sa. 9.77 sa. 7.22 d (J= 8.4 Hz). 6.37 d (J= 2.4 Hz). 6.33 dd (J= 8.4; 2.4 Hz). 6.28 d (J= 1.9 Hz). […]

[6] = fucoxanthin alone, highest concentration tested

EC50 [1] | Trolox equivalency (EC50 sample/EC 50 Trolox) [1] | εmax better than that of morin [4] | Compound | reduced IL-6 levels [2] | ROS levels (result in words) ([3]; all concentrations tested, 4 h pretreatment, UVB 50 mJ/cm^2, 45 min) | solubility [5] | reduced ROS production ([3]; 10 µM, 4 h pretreatment, UVB 50 mJ/cm^2, 45 min, vs irradiated cell control) | IL-6 production reduction [2, 6] | ROS reduction [3, 6]
10.8 ± 2.21 µM | 0.517 |  | O=c1c(O)c(-c2ccc(O)cc2O)oc2cc(O)cc(O)c12 [Morin, 2-(2,4-dihydroxyphenyl)-3,5,7-trihydroxy-4H-chromen-4-one] | 16% | failed to reduce ROS levels at any of the concentrations tested |  |  |  | 
13.7 ± 0.768 µM | 0.658 | 60% | ON=c1c(O)c(-c2ccc(O)cc2O)oc2cc(O)cc(O)c12 [Morin oxime, 2-(2,4-dihydroxyphenyl)-3,5,7-trihydroxy-4H-chromen-4-one oxime] | 45% |  | soluble in AcOEt, acetone, MeOH, and partially soluble in water |  |  | 

More lines, now with the values behind:

Compound | EC50 [1] | Trolox equivalency (EC50 sample/EC 50 Trolox) [1] | εmax better than that of morin [4] | reduced IL-6 levels [2] | ROS levels (result in words) ([3]; all concentrations tested, 4 h pretreatment, UVB 50 mJ/cm^2, 45 min) | solubility [5] | reduced ROS production ([3]; 10 µM, 4 h pretreatment, UVB 50 mJ/cm^2, 45 min, vs irradiated cell control) | IL-6 production reduction [2, 6] | ROS reduction [3, 6]
NC(=O)NN=c1c(O)c(-c2ccc(O)cc2O)oc2cc(O)cc(O)c12 [Morin semicarbazone, 2-(2-(2,4-dihydroxyphenyl)-3,5,7-trihydroxy-4H-chromen-4-ylidene)hydrazine-1-carboxamide] | 12.3 ± 0.922 µM | 0.590 | 40% | 28% |  | solubility in AcOEt, acetone, MeOH | up to 20% |  | 
fucoxanthin [reference compound] |  |  |  |  |  |  |  | 30% | 34%
Cc1c(C)c2c(c(C)c1O)CCC(C)(C(=O)O)O2 (stereo not shown) [Trolox, reference compound] | 20.8 ± 0.811 µM | 1 |  |  |  |  |  |  | 
